{"source": "patent US7244750B2", "about": "“Active substance combinations having insecticidal and acaricidal properties” (Bayer CropScience Aktiengesellschaft, priority 2000, dated 2007)", "tested_on": "whitefly Bemisia tabaci", "test": "Bemisia test (plant-damaging insects; infested cotton plants immersed in active compound preparation)", "assay_type": "in vivo", "conditions": "single active compound, eggs, larvae and pupae on cotton plants (Gossypium hirsutum)", "procedure": "• Bemisia Test • Solvent: 7.5 parts by weight of dimethylformamide Emulsifier: 2.5 parts by weight of alkylaryl polyglycol ether\nTo produce a suitable preparation of active compound, 1 part by weight of active compound is mixed with the stated amounts of solvent and emulsifier, and the concentrate is diluted with water to the desired concentration.\nCotton plants (Gossypium hirsutum) which are infested with eggs, larvae and pupae of the whitefly Bemisia tabaci are immersed in a preparation of active compound of the desired concentration.\nAfter the desired period of time, the kill in % is determined. 100% means that all animals have been killed; 0% means that none of the animals have been killed.", "data": [{"smiles": "Cc1cc(C)c(C2=C(OC(=O)CC(C)(C)C)C3(CCCC3)OC2=O)c(C)c1", "note": "[Ex. (I-b-1)]", "values": [{"measurement": "Kill rate in % after 10 d", "setting": "4 ppm", "value": 0, "unit": "%"}, {"measurement": "Kill rate in % after 10 d", "setting": "20 ppm", "value": 80, "unit": "%"}]}, {"smiles": "CC1=NNC(=O)N(/N=C/c2cccnc2)C1", "note": "[Pymetrozin, pymetrozin]", "values": [{"measurement": "Kill rate in % after 10 d", "setting": "4 ppm", "value": 0, "unit": "%"}]}, {"smiles": "CC(COc1ccc(Oc2ccccc2)cc1)Oc1ccccn1", "note": "(stereo not shown) [Pyriproxiphen, pyriproxyfen]", "values": [{"measurement": "Kill rate in % after 10 d", "setting": "20 ppm", "value": 0, "unit": "%"}]}]}
